# Source: ChEMBL document CHEMBL3603758, “Geraniin inhibits TGF-β1-induced epithelial-mesenchymal transition and suppresses A549 lung cancer migration, invasion and anoikis resistance” (2015)
# The source made the active and inactive calls. No cut-off for these calls is given here.
# Tests used:
# [1] = system: A549; assay: Antiproliferative activity against human A549 cells assessed as inhibition of cell growth at 30 uM incubated for 48 hrs by CCK8 assay; assay type: functional, cell-based
# [2] = system: A549; assay: Antiproliferative activity against human A549 cells assessed as effect on cell proliferation at =< 30 uM incubated for 24 hrs by CCK8 assay; assay type: functional, cell-based
# [3] = system: A549; assay: Antiproliferative activity against human A549 cells assessed as cell survival rate at 2.5 uM incubated for 48 hrs by CCK8 assay; assay type: functional; conditions: A549, 48 h, read-out: Survival
# [4] = system: A549; assay: Antiproliferative activity against human A549 cells assessed as cell survival rate at 5 uM incubated for 48 hrs by CCK8 assay; assay type: functional; conditions: A549, 48 h, read-out: Survival
# [5] = system: A549; assay: Antiproliferative activity against human A549 cells assessed as cell survival rate at 10 uM incubated for 48 hrs by CCK8 assay; assay type: functional; conditions: A549, 48 h, read-out: Survival
# [6] = system: A549; assay: Antiproliferative activity against human A549 cells assessed as cell survival rate at 15 uM incubated for 48 hrs by CCK8 assay; assay type: functional; conditions: A549, 48 h, read-out: Survival
# [7] = system: A549; assay: Antiproliferative activity against human A549 cells assessed as cell survival rate at 20 uM incubated for 48 hrs by CCK8 assay; assay type: functional; conditions: A549, 48 h, read-out: Survival
# [8] = system: A549; assay: Inhibition of TGFbeta1-induced epithelial-mesenchymal transition in human A549 cells assessed as suppression of mesenchymal phenotype at 15 and 20 uM pre-treated for 2 hrs before TGFbeta1 stimulation for 48 hrs; assay type: functional, cell-based
# [9] = system: A549; assay: Inhibition of TGFbeta1-induced reduction in E-cadherin expression in human A549 cells assessed as suppresion of mesenchymal phenotype at 15 and 20 uM pre-treated for 2 hrs before TGFbeta1 stimulation for 48 hrs by Western blot method; assay type: functional, cell-based
# [10] = system: A549; assay: Inhibition of TGFbeta1-induced reduction in E-cadherin expression in human A549 cells at 15 and 20 uM pre-treated for 2 hrs before TGFbeta1 stimulation for 48 hrs by Western blot method; assay type: functional, cell-based
# [11] = system: A549; assay: Inhibition of TGFbeta1-induced increase in N-cadherin expression in human A549 cells at 15 and 20 uM pre-treated for 2 hrs before TGFbeta1 stimulation for 48 hrs by Western blot method; assay type: functional, cell-based
# [12] = system: A549; assay: Inhibition of TGFbeta1-induced increase in vimentin expression in human A549 cells at 15 and 20 uM pre-treated for 2 hrs before TGFbeta1 stimulation for 48 hrs by Western blot method; assay type: functional, cell-based
# [13] = system: A549; assay: Inhibition of TGFbeta1-induced increase in Snail gene expression in human A549 cells at 15 and 20 uM pre-treated for 2 hrs before TGFbeta1 stimulation for 48 hrs by qRT-PCR method; assay type: functional, cell-based
# [14] = system: A549; assay: Inhibition of TGFbeta1-induced increase in Snail protein expression in human A549 cells at 15 and 20 uM pre-treated for 2 hrs before TGFbeta1 stimulation for 48 hrs by Western blot method; assay type: functional, cell-based
# [15] = system: A549; assay: Inhibition of TGFbeta1-induced cell migration of human A549 cells at 15 and 20 uM incubated for 48 hrs by wound healing assay; assay type: functional, cell-based
# [16] = system: A549; assay: Inhibition of TGFbeta1-induced cell invasion of human A549 cells at 15 and 20 uM incubated for 48 hrs by matrigel cell invasion assay; assay type: functional, cell-based
# [17] = system: A549; assay: Inhibition of TGFbeta1-induced anoikis resistance in human A549 cells grown on poly-HEMA-coated tissue culture plates at 15 and 20 uM pre-treated for 2 hrs before TGFbeta1 stimulation for 48 hrs; assay type: functional, cell-based
# [18] = system: A549; assay: Inhibition of TGFbeta1-induced anoikis resistance in human A549 cells grown on poly-HEMA-coated tissue culture plates assessed reduction in PARP cleavage at 15 and 20 uM pre-treated for 2 hrs before TGFbeta1 stimulation for 48 hrs by Western blot method; assay type: functional, cell-based
# [19] = system: A549; assay: Inhibition of TGFbeta1-induced anoikis resistance in human A549 cells grown on poly-HEMA-coated tissue culture plates assessed reduction in cell proliferation at 15 and 20 uM pre-treated for 2 hrs before TGFbeta1 stimulation for 48 hrs by SRB assay; assay type: functional, cell-based
# [20] = biological target: Mothers against decapentaplegic homolog 2 (Homo sapiens) (UniProt Q15796); assay: Inhibition of TGFbeta1-induced Smad2 phosphorylation in human A549 cells at 15 and 20 uM pre-treated for 2 hrs before TGFbeta1 stimulation for 48 hrs by Western blot method; assay type: cell-based
# Chain of Mothers against decapentaplegic homolog 2 (Homo sapiens) (Q15796 whole entry): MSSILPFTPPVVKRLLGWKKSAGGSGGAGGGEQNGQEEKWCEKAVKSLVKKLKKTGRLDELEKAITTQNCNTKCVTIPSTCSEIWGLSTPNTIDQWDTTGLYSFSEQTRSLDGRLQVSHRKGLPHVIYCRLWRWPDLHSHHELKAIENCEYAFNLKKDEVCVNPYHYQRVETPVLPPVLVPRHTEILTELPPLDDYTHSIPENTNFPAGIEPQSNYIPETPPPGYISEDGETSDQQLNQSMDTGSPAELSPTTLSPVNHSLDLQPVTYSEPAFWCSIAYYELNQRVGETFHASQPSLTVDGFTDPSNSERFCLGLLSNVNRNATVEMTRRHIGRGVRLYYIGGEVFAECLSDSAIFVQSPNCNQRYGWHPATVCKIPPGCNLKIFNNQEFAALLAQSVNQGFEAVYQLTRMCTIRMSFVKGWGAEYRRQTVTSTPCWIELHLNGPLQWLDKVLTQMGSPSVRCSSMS
smiles,measurement,setting,value
O=C1O[C@H]2[C@@H]3OC(=O)c4cc(O)c(O)c(O)c4-c4c(cc(O)c(O)c4O)C(=O)OC[C@H]2O[C@@H](OC(=O)c2cc(O)c(O)c(O)c2)[C@@H]3OC(=O)c2cc(O)c(O)c3c2[C@@H]2C1=CC(=O)[C@](O)(O3)C2(O)O [GERANIIN],growth inhibition (GI),[1],Active
same,Activity,[2],inactive
same,viability at 2.5 µM,[3],> 90%
same,viability at 5 µM,[4],> 90%
same,viability at 10 µM,[5],> 90%
same,viability at 15 µM,[6],> 90%
same,viability at 20 µM,[7],> 90%
same,inhibition,[8],Active
same,inhibition,[9],Active
same,inhibition,[10],Active
same,inhibition,[11],Active
same,inhibition,[12],Active
same,inhibition,[13],Dose-dependent effect
same,inhibition,[14],Dose-dependent effect
same,inhibition,[15],Dose-dependent effect
same,inhibition,[16],Active
same,inhibition,[17],Active
same,inhibition,[18],Active
same,inhibition,[19],Dose-dependent effect
same,inhibition,[20],Active
